From patent US5155108A, “Imidazopyridazines and use as antiasthmatic agents” (Takeda Chemical Industries, Ltd., priority 1990, dated 1992) come the findings set out here.

The experiment has as its system bronchoconstriction induced by PAF. As to the kind of experiment: Effect on bronchoconstriction induced by platelet activating factor (PAF) in guinea pigs (Konzett-Rossler method). The conditions noted are these: Cavia porcellus, po, 30 mg/kg orally 1 hour before PAF (1 μg/kg i.v.), suspended in 5% gum arabic, recorded for 15 minutes, male Hartley guinea pigs. In kind it is in vivo, guinea pig (male Hartley). The method, then: Effect On bronchoconstriction Induced By Platelet Activating Factor (PAF) In Guinea Pigs
Male Hartley guinea pigs (body weight 500 g) were used. The bronchoconstriction reaction in the guinea pig which has intravenously received PAF (1 μg/Kg) was measured by the Konzett-Rossler method. The trachea of the guinea pig with its back fixed was incised under anesthesia condition with urethane (intraperitoneal injection, 1.50 g/kg) and connected with an artificial respirator via a cannula. The branch of the tracheal cannula was connected with a transducer (7020 type, Ugobasile). Air was sent to the trachea at the volume of 3-7 ml/stroke, at the rate of 70 strokes/min. at load pressure of 10 cm H2 O to lung and overflowed air volume was recorded with Rectegraph (Recte-Hori-8s, Sanei Sokuki) via the transducer. After the guinea pig was treated with gallamine (1 mg/kg, i.v.), PAF (1 μg/kg) dissolved in a physiological saline solution was administered to the guinea pig via a jugular venous cannula and the bronchoconstriction reaction induced thereby was recorded for 15 minutes. The drug (30 mg/kg) suspended in a 5% gum arabic solution was administered orally 1 hour before the injection of PAF.

On to `CC(C)(CSc1ccc2nccn2n1)CS(N)(=O)=O` [Example 37, 6-[(3-sulfamoyl-2,2-dimethylpropyl)thio]imidazo[1,2-b]pyridazine], for which the inhibition in vivo (commonly the share of the control response that was lost under treatment) at 30 mg/kg was 99%.

In the case of `NS(=O)(=O)CCC(Sc1ccc2nccn2n1)c1ccccc1` (stereo not drawn) [Example 34], the inhibition in vivo at 30 mg/kg was determined as 38%. With `O=S(=O)(CCSc1ccc2nccn2n1)NC1CC1` [Example 25, 6-[2-(N-cyclopropylsulfamoyl)ethylthio] imidazo[1,2-b]pyridazine], the inhibition in vivo at 30 mg/kg worked out at 47%.

As for `O=S(=O)(CCCSc1ccc2nccn2n1)NCCc1cccnc1` [Example 19], the inhibition in vivo at 30 mg/kg was determined as 41%.

In turn, `NS(=O)(=O)CCSc1ccc2nccn2n1` [Example 26] came in with an inhibition in vivo at 30 mg/kg of 42%. For `CN(C)S(=O)(=O)CCCSc1ccc2nccn2n1` [Example 9] the value was 52%; for `NS(=O)(=O)CCCOc1ccc2nccn2n1` [Example 41], 66%. As for `Cn1cccc1CCNS(=O)(=O)CCCSc1ccc2nccn2n1` [Example 20], the figure is 41%. As for `CC(C)(COc1ccc2ncc(Cl)n2n1)CS(N)(=O)=O` [Example 45, 3-chloro-6-[(2,2-dimethyl-3-sulfamoylpropyl)oxy]imidazo[1,2-b]pyridazine], the figure is 50%; as for `CC(CSc1ccc2nccn2n1)CS(N)(=O)=O` (stereo not drawn) [Example 31], 74%. As to `C[C@@H](CSc1ccc2nccn2n1)CS(N)(=O)=O` [Example 35, (+)-6-[(2-(S)-methyl-3-sulfamoylpropyl)thio]imidazo[1,2-b]pyridazine], the inhibition in vivo at 30 mg/kg came to 79%. On to `NS(=O)(=O)CCCCCSc1ccc2nccn2n1` [Example 29, 6-(5-sulfamoylpentylthio)imidazo[1,2-b]pyridazine], for which at 30 mg/kg the inhibition in vivo was 51%.

For the compound `CC(C)(COc1ccc2nccn2n1)CS(N)(=O)=O` [Example 39, 6-[(2,2-dimethyl-3-sulfamoylpropyl)oxy]imidazo[1,2-b]pyridazine], testing at 30 mg/kg gave an inhibition in vivo of 72%. As for `NS(=O)(=O)CCCSc1ccc2ncc(Cl)n2n1` [Example 43, 3-chloro-6[(3-sulfamoylpropyl)thio]imidazo[1,2-b]pyridazine], the figure is 54%; as for `C[C@H](COc1ccc2nccn2n1)CS(N)(=O)=O` [Example 40, (+)-6-[(2-(R)-methyl-3-sulfamoylpropyl)oxy]imidazo[1,2-b]pyridazine], 53%; as for `NS(=O)(=O)CC(CSc1ccc2nccn2n1)c1ccccc1` (stereo not drawn) [Example 33], 52%. For `CCC(COc1ccc2nccn2n1)CS(N)(=O)=O` (stereo not drawn) [Example 42] the value was 55%; for `NS(=O)(=O)CCCCSc1ccc2nccn2n1` [Example 30], 73%.

Turning to `CCC(CSc1ccc2nccn2n1)CS(N)(=O)=O` (stereo not drawn) [Example 32], testing at 30 mg/kg gave an inhibition in vivo of 80%. In turn, `CCC(CC)(COc1ccc2nccn2n1)CS(N)(=O)=O` [Example 47, 6-[(2,2-diethyl-3-sulfamoylpropyl)oxy]imidazo[1,2-b]pyridazine] had an inhibition in vivo at 30 mg/kg of 90%. For the compound `NS(=O)(=O)CCCSc1ccc2nccn2n1` [Example 1, 6-(3-sulfamoylpropylthio)imidazo [1,2-b]pyridazine], testing at 30 mg/kg gave an inhibition in vivo of 71%.
